# Test results taken from publication PMC8290231 (Cancer Medicine, 2021).
# Where two headings read alike, the source gives them in different places.
# Assays:
# A204 = experiment: CCK-8 cell proliferation assay; format: cell-based; conditions: Homo sapiens, read-out: antiproliferative IC50, A204
# Description: (§1) The base medium for MDA‐MB‐453 cell line is DMEM medium (CORNING, USA). All other cell lines were cultured in RPMI‐1640 medium supplemented with 10% FBS, 100 U/ml of penicillin, and […] of streptomycin in 5% CO2 at 37℃. The cells in the logarithmic growth phase were used for the experiments.
# (§2) Cells were seeded in 96‐well plate in complete medium (1000–6000 cells/well) and cultured for overnight. Then the cells were exposed to gradient concentrations (0.0005–10 μM) of compounds. Cell proliferation was analyzed by Cell Counting Kit 8 (CK04, Dojindo Laboratories, Japan) after co‐incubation for a further 72 h. IC50 values were calculated by fitting of concentration–response curves using GraphPad Prism 8.01 software. Each assay was repeated at least three times.
# (§3) The expression and activation levels of FGFR1–4 in these cells were determined via western blot experiments (Figure S1).
# A549 = experiment: CCK-8 cell proliferation assay; format: cell-based; conditions: Homo sapiens, A549, 72 h, read-out: antiproliferative IC50, A549
# Description: as §1, §2, §3
# H1581 = experiment: CCK-8 cell proliferation assay; format: cell-based; conditions: Homo sapiens, read-out: antiproliferative IC50, H1581
# Description: as §1, §2, §3
# KATOIII = experiment: CCK-8 cell proliferation assay; format: cell-based; conditions: Homo sapiens, KATO III, read-out: antiproliferative IC50, KATOIII
# Description: as §1, §2, §3
# MDA‐MB‐231 = experiment: CCK-8 cell proliferation assay; format: cell-based; conditions: Homo sapiens, MDA-MB-231, 72 h
# Description: as §1, §2, §3
# MDA‐MB‐453 = experiment: CCK-8 cell proliferation assay; format: cell-based; conditions: Homo sapiens, read-out: antiproliferative IC50, MDA‐MB‐453
# Description: as §1, §2, §3
# MKN‐1 = experiment: CCK-8 cell proliferation assay; format: cell-based; conditions: Homo sapiens, read-out: antiproliferative IC50, MKN‐1
# Description: as §1, §2, §3
# NCI‐H716 = experiment: CCK-8 cell proliferation assay; format: cell-based; conditions: Homo sapiens, read-out: antiproliferative IC50, NCI‐H716
# Description: as §1, §2, §3
# RT112 = experiment: CCK-8 cell proliferation assay; format: cell-based; conditions: Homo sapiens, read-out: antiproliferative IC50, RT112
# Description: as §1, §2, §3
# Ba/F3(+IL‐3) = experiment: CCK-8 proliferation assay in parental Ba/F3 cells; format: cell-based; conditions: Mus musculus, read-out: IC50 (μΜ) Ba/F3(+IL‐3)
# Description: (§4) The Ba/F3 cell lines stably expressing FGFR1, FGFR1‐V561M, FGFR1‐V561F, FGFR1‐K656N, and FGFR1‐K656E were self‐established through electroporation pCDNA3.1‐TEL plasmids using the Amaxa Cell Line Nucleofector Kit V (Lonza, Cologne, Germany). Stable cell lines were selected by G418 (Merck, USA) and then withdrawal of IL‐3 (R&D). […] Parental Ba/F3 cells were maintained in RPMI 1640 supplemented with 10% FBS, 100 U/ml of penicillin, […] of streptomycin, and 10 ng/ml of IL‐3, while all Ba/F3 stable cell lines were cultured in the same medium without IL‐3.
# as §2
# (§5) There is, however, no commercially available FGFR1 mutant kinase to validate this. Therefore, we constructed Ba/F3 model cells stably expressing FGFR1‐WT, K656E, K656N, V561M, and V561F mutations.
# SNU16 = experiment: CCK-8 cell proliferation assay; format: cell-based; conditions: Homo sapiens, SNU-16, 72 h, read-out: antiproliferative IC50, SNU16
# Description: as §1, §2, §3
# Ba/F3‐FGFR1 = experiment: CCK-8 proliferation assay in Ba/F3 stable cells; format: cell-based; conditions: Mus musculus, BaF3, 72 h, read-out: IC50 (μΜ) Ba/F3‐FGFR1
# Description: as §4, §2, §5
# Ba/F3‐FGFR1‐K656E = experiment: CCK-8 proliferation assay in Ba/F3 stable cells; format: cell-based; conditions: Mus musculus, BaF3, 72 h, read-out: IC50 (μΜ) Ba/F3‐FGFR1‐K656E
# Description: as §4, §2, §5
# Ba/F3‐FGFR1‐K656N = experiment: CCK-8 proliferation assay in Ba/F3 stable cells; format: cell-based; conditions: Mus musculus, BaF3, 72 h, read-out: IC50 (μΜ) Ba/F3‐FGFR1‐K656N
# Description: as §4, §2, §5
# Ba/F3‐FGFR1‐V561F [1] = experiment: CCK-8 proliferation assay in Ba/F3 stable cells; format: cell-based; conditions: Mus musculus, BaF3, 72 h, read-out: IC50 (μΜ) Ba/F3‐FGFR1‐V561F
# Description: as §4, §2, §5
# Ba/F3‐FGFR1‐V561M = experiment: CCK-8 proliferation assay in Ba/F3 stable cells; format: cell-based
# Description: as §4, §2, §5
# FGFR1‐V561M = conditions: no reference given; cited from earlier work
# FGFR1 WT = conditions: no reference given; cited from earlier work
# Ba/F3‐FGFR1‐V561F [2] = experiment: Cell cycle analysis by flow cytometry (propidium iodide); format: cell-based; conditions: 1000 nM
# Description: About 6 × 10^5 cells were re‐suspended in 150 μl of BD Cytofix/Cytoperm buffer solution I for 10 min at room temperature. The cell suspensions were added with BD Cytofix/Cytoperm buffer solution II and incubated with another 10 min at room temperature, and then incubated with 200 μl of propidium iodide buffer (0.1 mg/ml) in the dark for 10 min at 4℃. Assays were performed with a Guava easyCyte flow cytometer (Merck, USA).
# Ba/F3‐FGFR1‐V561F [3] = experiment: Apoptosis assay by flow cytometry (Annexin V / 7-AAD); format: cell-based; conditions: 1000 nM
# Description: After incubation, cells were collected and washed twice with pre‐cold PBS. About 6 × 10^5 cells were resuspended in 100 μl of 1× BD binding buffer solution (#556454, BD), and then stained with 7‐ADD (#559925, BD) and Annexin V‐PE (#556422, BD) in the dark for 15 min. Finally, 400 μl of 1×BD binding buffer solution were added to stop dyeing. The cells were then measured on a Guava easyCyte flow cytometer (Merck, USA).
structure (smiles),measurement,setting,value
COCCNc1cc(NC(=O)N2CCCc3cc(CN4CCN(C)CC4=O)c(C=O)nc32)ncc1C#N [FGF401],IC50,"A204; A204, FGFR1 amplification, CCK-8, 72 h",8250 ± 708 nM
same,IC50,"A549; negative control, CCK-8, 72 h",> 10000 nM
same,IC50,"H1581; NCI-H1581, FGFR1 amplification, CCK-8, 72 h",> 10000 nM
same,IC50,"KATOIII; FGFR2 amplification, CCK-8, 72 h",9380 ± 2860 nM
same,IC50,"MDA‐MB‐231; read-out: antiproliferative IC50, MDA‐MB‐231, negative control, CCK-8, 72 h",> 10000 nM
same,IC50,"MDA‐MB‐453; MDA-MB-453, FGFR4‐Y367C, CCK-8, 72 h",62.3 ± 27.7 nM
same,IC50,"MKN‐1; MKN-1, negative control, CCK-8, 72 h",> 10000 nM
same,IC50,"NCI‐H716; NCI-H716, FGFR2 amplification, CCK-8, 72 h",> 10000 nM
same,IC50,"RT112; RT-112, FGFR3‐TACC3, CCK-8, 72 h",> 10000 nM
CCN1C(=O)N(c2c(F)c(OC)cc(OC)c2F)Cc2cnc3[nH]c(CN4CCOCC4)cc3c21 [Pemigatinib],IC50,"Ba/F3(+IL‐3); BaF3, parental cells with IL-3, CCK-8, 72 h",8980 ± 1400 nM
Cc1ccc(C(=O)Nc2ccc(CN3CCN(C)CC3)c(C(F)(F)F)c2)cc1C#Cc1cnc2cccnn12 [Ponatinib],IC50,"A204; A204, 72 h",169 ± 134 nM
same,IC50,A549,990 ± 54.1 nM
same,IC50,"H1581; NCI-H1581, 72 h",128 ± 19.1 nM
same,IC50,KATOIII; 72 h,18.7 ± 0.8 nM
same,IC50,"MDA‐MB‐231; read-out: antiproliferative IC50, MDA‐MB‐231",701 ± 69.9 nM
same,IC50,"MDA‐MB‐453; MDA-MB-453, 72 h",707 ± 26.4 nM
same,IC50,"MKN‐1; MKN-1, 72 h",758 ± 72 nM
same,IC50,"NCI‐H716; NCI-H716, 72 h",26.4 ± 2.9 nM
same,IC50,"RT112; RT-112, 72 h",216 ± 8.2 nM
same,IC50,SNU16,78.2 ± 10.2 nM
same,IC50,Ba/F3‐FGFR1,33 ± 2.8 nM
same,IC50,Ba/F3‐FGFR1‐K656E,88 ± 28 nM
same,IC50,Ba/F3‐FGFR1‐K656N,47 ± 8.8 nM
same,IC50,Ba/F3‐FGFR1‐V561F [1],56 ± 9 nM
same,"fold increase of IC50 value, Ba/F3‐FGFR1‐V561M compared to Ba/F3‐FGFR1‐WT",Ba/F3‐FGFR1‐V561M,10 fold
same,IC50,"Ba/F3‐FGFR1‐V561M; Mus musculus, BaF3, 72 h, read-out: IC50 (μΜ) Ba/F3‐FGFR1‐V561M",400 ± 11 nM
same,IC50,"Ba/F3(+IL‐3); BaF3, 72 h",2380 ± 420 nM
same,reported FGFR1‐V561M kinase inhibitory activity,FGFR1‐V561M,18.6
same,reported FGFR1 WT kinase inhibitory activity,FGFR1 WT,1.6
C=CC(=O)N1CC[C@H](n2nc(C#Cc3cc(OC)cc(OC)c3)c3c(N)ncnc32)C1 [TAS120],effect on cell cycle,Ba/F3‐FGFR1‐V561F [2],weak effect
same,effect on apoptosis,Ba/F3‐FGFR1‐V561F [3],weak effect
